Experimental data from patent US20100184786A1, “Polar Quinazolines” (Wyeth LLC, priority 2008, published 2010).

Columns and labels:
Brain penetration data = assay type: in vivo; settings: brain/blood, read-out: Brain/Blood ratio
human LXRα = target: T1, human LXRα (Homo sapiens, UniProt Q13133); assay: Ligand-binding test procedure for human LXRα (3H T0901317 tracer, flash plates); settings: competition with 3H T0901317; read-out: hLXRa binding IC50
T1 construct: biotin (biotinylated); made in house; host or cells: E. coli
T1 sequence (Q13133 1-447): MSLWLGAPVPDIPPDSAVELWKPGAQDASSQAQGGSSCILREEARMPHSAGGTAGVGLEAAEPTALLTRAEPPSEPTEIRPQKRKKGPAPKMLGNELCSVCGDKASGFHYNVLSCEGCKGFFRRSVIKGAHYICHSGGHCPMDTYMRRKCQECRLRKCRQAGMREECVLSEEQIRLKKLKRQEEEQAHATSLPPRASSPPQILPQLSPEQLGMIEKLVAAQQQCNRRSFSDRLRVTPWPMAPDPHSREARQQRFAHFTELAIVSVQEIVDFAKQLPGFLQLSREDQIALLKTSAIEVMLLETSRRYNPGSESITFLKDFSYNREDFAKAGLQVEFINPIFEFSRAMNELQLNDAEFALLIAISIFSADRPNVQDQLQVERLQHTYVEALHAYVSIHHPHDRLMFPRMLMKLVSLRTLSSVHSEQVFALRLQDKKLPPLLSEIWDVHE
Description: II. Ligand-Binding Test Procedure for Human LXRa.
(§1) • Buffer: 100 mM KCl, 100 mM TRIS (pH 7.4 at +4° C.), 8.6% glycerol, 0.1 mM PMSF*, 2 mM MTG*, 0.2% CHAPS (* not used in wash buffer) • Tracer: ^3H T0901317 • Receptor source: E. coli extract from cells expressing biotinylated hLXRα. Extract was made in a similar buffer as above, but with 50 mM TRIS.
• Washed streptavidin and coated flash plates with wash buffer. • Diluted receptor extract to give Bmax˜4000 cpm and add to the wells. • Wrapped the plates in aluminum foil and stored them at +4° C. over night.
(§2) • Made a dilution series in DMSO of the test ligands. • Made a 5 nM solution of the radioactive tracer in buffer. • Mixed 2500 diluted tracer with 50 of the test ligand from each concentration of the dilution series. • Washed the receptor-coated flash plates. • Added 2000 per well of the ligand/radiolabel mixture to the receptor-coated flash plates. • Wrapped the plates in aluminum foil and incubate at +4° C. over night.
• Aspirated wells, and wash the flashed plates. Sealed the plate. • Measured the remaining radioactivity in the plate.

ABCA1 gene = assay: Gene regulation by LXR (murine): ABCA1 gene regulation, mRNA by real-time PCR; assay type: cell-based; settings: Mus musculus; for Emax: read-out: Agonism ABCA1
human LXRβ = target: T2, human LXRβ (Homo sapiens, UniProt P55055); assay: Ligand-binding test procedure for human LXRβ (3H T0901317 tracer, flash plates); settings: competition with 3H T0901317; read-out: hLXRb binding IC50
T2 construct: biotin (biotinylated); made in house; host or cells: E. coli
T2 sequence (P55055 1-460): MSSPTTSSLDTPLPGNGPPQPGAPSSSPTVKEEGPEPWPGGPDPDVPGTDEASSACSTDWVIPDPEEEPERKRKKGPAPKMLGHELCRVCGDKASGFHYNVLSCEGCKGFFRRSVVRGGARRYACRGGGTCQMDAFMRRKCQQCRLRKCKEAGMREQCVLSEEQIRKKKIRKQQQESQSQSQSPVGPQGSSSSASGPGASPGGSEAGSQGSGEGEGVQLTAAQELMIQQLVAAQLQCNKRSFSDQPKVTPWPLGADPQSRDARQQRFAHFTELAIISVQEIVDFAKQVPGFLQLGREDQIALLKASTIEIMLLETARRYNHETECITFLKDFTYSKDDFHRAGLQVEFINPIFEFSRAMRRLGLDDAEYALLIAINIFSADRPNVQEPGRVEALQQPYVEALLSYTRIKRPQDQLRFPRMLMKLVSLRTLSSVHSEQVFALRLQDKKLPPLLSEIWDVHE
Description: I. Ligand-Binding Test Procedure for Human LXRβ.
as §1, with “extracted” for “extract”, “hLXRβ.” for “hLXRα.”
• Washed streptavidin and coated flash plates with wash buffer. • Diluted receptor extract to give Bmax˜4000 cpm and add to the wells. • Wrapped the plates in aluminum foil and stored them at +4° C. overnight.
as §2
• Aspirated wells, and washed the flashed plates. Sealed the plate. • Measured the remaining radioactivity in the plate.

Row | Structure (SMILES) | Kp (Brain penetration data) | IC50 (human LXRα) | EC50 (ABCA1 gene) | Emax (ABCA1 gene) | IC50 (human LXRβ)
1 | Cc1nc(-c2cccc(-c3cccc(S(C)(=O)=O)c3)c2)c2cccc(C(F)(F)F)c2n1 | 2.27 |  |  |  | 
2 | CS(=O)(=O)c1cccc(Oc2ccc(F)c(-c3ncnc4c(C(F)(F)F)cccc34)c2)c1 | 1.45 |  |  |  | 
3 | CCS(=O)(=O)c1cccc(Oc2ccc(Cl)c(-c3nc(C)nc4c(C(F)(F)F)cccc34)c2)c1 | 1.57 |  |  |  | 
4 | CS(=O)(=O)c1cccc(Oc2ccc(F)c(-c3ncnc4c(Cl)cccc34)c2)c1 | 1.2 |  |  |  | 
5 | CCS(=O)(=O)c1cccc(Oc2ccc(F)c(-c3ncnc4c(Cl)cccc34)c2)c1 | 1.2 |  |  |  | 
6 | NC(=O)CCCS(=O)(=O)c1cccc(Oc2ccc(Cl)c(-c3ncnc4c(C(F)(F)F)cccc34)c2)c1 [Example 9, 4-[(3-{4-chloro-3-[8-(trifluoromethyl)quinazolin-4-yl]phenoxy}phenyl)sulfonyl]-butanamide] | 0.06 | 407 nM | 1900 nM | 91% | 41 nM
7 | N#CCS(=O)(=O)c1cccc(Oc2ccc(Cl)c(-c3ncnc4c(C(F)(F)F)cccc34)c2)c1 [Example 11, [(3-{4-chloro-3-[8-(trifluoromethyl)quinazolin-4-yl]phenoxy}phenyl)sulfonyl]-acetonitrile] | 0.16 | 425 nM | 1760 nM | 95% | 40 nM
8 | NC(=O)CS(=O)(=O)c1cccc(Oc2ccc(Cl)c(-c3ncnc4c(C(F)(F)F)cccc34)c2)c1 [Example 14, 2-[(3-{4-chloro-3-[8-(trifluoromethyl)quinazoliyl]phenoxy}phenyl)sulfonyl]-acetamide] |  | 705 nM | 1380 nM | 95% | 56 nM
9 | O=C(O)CS(=O)(=O)c1cccc(Oc2ccc(Cl)c(-c3ncnc4c(C(F)(F)F)cccc34)c2)c1 [Example 15, [(3-{4-chloro-3-[8-(trifluoromethyl)quinazolin-4-yl]phenoxy}phenyl)sulfonyl]acetic acid] |  | 1010 nM | 2920 nM | 51% | 19 nM
10 | CNS(=O)(=O)c1cccc(Oc2ccc(Cl)c(-c3ncnc4c(Cl)cccc34)c2)c1 [Example 16, 3-[4-chloro-3-(8-chloroquinazolin-4-yl)phenoxy]-N-methylbenzenesulfonamide] |  | 146 nM | 255 nM | 98% | 11 nM
11 | NS(=O)(=O)c1cccc(Oc2ccc(Cl)c(-c3ncnc4c(Cl)cccc34)c2)c1 [Example 17, 3-[4-chloro-3-(8-chloroquinazolin-4-yl)phenoxy]benzenesulfonamide] |  | 1710 nM | 1480 nM | 74% | 151 nM
12 | CNS(=O)(=O)c1cccc(Oc2ccc(Cl)c(-c3ncnc4c(C(F)(F)F)cccc34)c2)c1 [Example 18] |  | 81 nM | 85 nM | 94% | 4 nM
13 | NS(=O)(=O)c1cccc(Oc2ccc(Cl)c(-c3ncnc4c(C(F)(F)F)cccc34)c2)c1 [Example 19, 3-{4-chloro-3-[8-(trifluoromethyl)quinazolin-4-yl]phenoxy}benzenesulfonamide] |  | 581 nM | 220 nM | 95% | 49 nM
14 | NS(=O)(=O)c1cccc(Oc2ccc(F)c(-c3ncnc4c(C(F)(F)F)cccc34)c2)c1 [Example 21, 3-{4-fluoro-3-[8-(trifluoromethyl)quinazolin-4-yl]phenoxy}benzenesulfonamide] |  | 1010 nM | 650 nM | 68% | 121 nM
15 | CNS(=O)(=O)c1cccc(Oc2ccc(F)c(-c3ncnc4c(C(F)(F)F)cccc34)c2)c1 [Example 22] |  | 149 nM | 290 nM | 81% | 10 nM
16 | CNS(=O)(=O)c1cccc(Oc2ccc(F)c(-c3ncnc4c(Cl)cccc34)c2)c1 [Example 23, 3-[3-(8-chloroquinazolin-4-yl)-4-fluorophenoxy]-N-methylbenzenesulfonamide] |  | 33 nM | 450 nM | 85% | 17 nM
17 | N#CCCCS(=O)(=O)c1cccc(Oc2ccc(F)c(-c3ncnc4c(C(F)(F)F)cccc34)c2)c1 [Example 25, 4-[(3-{4-fluoro-3-[8-(trifluoromethyl)quinazolin-4-yl]phenoxy}phenyl)sulfonyl]butanenitrile] | 0.55 | 1520 nM | 2470 nM | 68% | 112 nM
18 | NCCCS(=O)(=O)c1cccc(Oc2ccc(F)c(-c3ncnc4c(C(F)(F)F)cccc34)c2)c1 [Example 28, 3-[(3-{4-fluoro-3-[8-(trifluoromethyl)quinazolin-4-yl]phenoxy}phenyl)sulfonyl]propan-1-amine] |  | 2990 nM |  | 3% | 116 nM
19 | N#CCCCCS(=O)(=O)c1cccc(Oc2ccc(F)c(-c3ncnc4c(C(F)(F)F)cccc34)c2)c1 [Example 31, 5-[(3-{4-fluoro-3-[8-(trifluoromethyl)quinazolin-4-yl]phenoxy}phenyl)sulfonyl]pentanenitrile] |  | 628 nM | 1760 nM | 99% | 52 nM
20 | CS(=O)(=O)CCCS(=O)(=O)c1cccc(Oc2ccc(F)c(-c3ncnc4c(C(F)(F)F)cccc34)c2)c1 [Example 32, 4-[2-fluoro-5-(3-{[3-(methylsulfonyl)propyl]sulfonyl}phenoxy)phenyl]-8-(trifluoromethyl)-quinazoline] |  | 660 nM | 1010 nM | 78% | 59 nM
21 | CS(=O)(=O)CCCCS(=O)(=O)c1cccc(Oc2ccc(F)c(-c3ncnc4c(C(F)(F)F)cccc34)c2)c1 [Example 37, 4-[2-fluoro-5-(3-{[4-(methylsulfonyl)butyl]sulfonyl}phenoxy)phenyl]-8-(trifluoromethyl)-quinazoline] |  | 536 nM | 415 nM | 77% | 66 nM
22 | N#CCCCCS(=O)(=O)c1cccc(Oc2ccc(F)c(-c3ncnc4c(Cl)cccc34)c2)c1 [Example 52, 5-({3-[3-(8-chloroquinazolin-4-yl)-4-fluorophenoxy]phenyl}sulfonyl)pentanenitrile] |  | 2030 nM | 1800 nM | 74% | 107 nM
23 | Cc1nc(-c2cc(Oc3cccc(S(=O)(=O)CCCCC#N)c3)ccc2Cl)c2cccc(C(F)(F)F)c2n1 [Example 61, 5-[(3-{4-chloro-3-[2-methyl-8-(trifluoromethyl)quinazolin-4-yl]phenoxy}phenyl)sulfonyl]-pentanenitrile] |  | 2800 nM |  | 27% | 97 nM
